The values below come from US8148391B2 (Cephalon, Inc., priority 2006, dated 2012).

Test [1] deals with T1, baculovirus-expressed ALK (Homo sapiens, UniProt Q9UM73).
T1 construct: host or cells: baculovirus expression system
In words: ALK Kinase Assay (ELISA-type, time-resolved fluorescence). As to conditions: ALK kinase inhibition, 1 μM ATP; read-out: ALK Activity. The class given is biochemical. The gist of the method:
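Wells were coated with phospholipase C-γ at 10 μg/mL in Tris-buffered saline. Adding 30 ng/ml enzyme started the reaction, which ran at 37° C for 15 minutes before Eu-N1 PT66 antibody detection. Percent inhibition versus log10 concentration gave IC50 by variable-slope fit.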
(In general: In an ELISA, binding on a coated surface is turned into a signal by an enzyme label.)

In test [2] the target is T2, c-Met (cytoplasmic domain) (Homo sapiens, UniProt P08581).
T2 construct: 10 ng/mL c-Met (cytoplasmic domain, Invitrogen Corporation #PV3143); purchased Invitrogen Corporation PV3143
In words: c-Met Kinase Assay (same methods as for ALK, with modifications). The class given is biochemical. As to conditions: c-Met kinase inhibition, 1 μM ATP; read-out: cMet Activity. A digest of the protocol: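 Steps: coat wells with PLC-γ (10 μg/mL, Tris-buffered saline); add 10 ng/mL c-Met cytoplasmic domain to initiate; incubate 15 min, 37° C; detect phosphoproduct via Eu-N1 PT66 antibody.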

Structures are written as SMILES.

T2 sequence (P08581 956-1390 limits assumed): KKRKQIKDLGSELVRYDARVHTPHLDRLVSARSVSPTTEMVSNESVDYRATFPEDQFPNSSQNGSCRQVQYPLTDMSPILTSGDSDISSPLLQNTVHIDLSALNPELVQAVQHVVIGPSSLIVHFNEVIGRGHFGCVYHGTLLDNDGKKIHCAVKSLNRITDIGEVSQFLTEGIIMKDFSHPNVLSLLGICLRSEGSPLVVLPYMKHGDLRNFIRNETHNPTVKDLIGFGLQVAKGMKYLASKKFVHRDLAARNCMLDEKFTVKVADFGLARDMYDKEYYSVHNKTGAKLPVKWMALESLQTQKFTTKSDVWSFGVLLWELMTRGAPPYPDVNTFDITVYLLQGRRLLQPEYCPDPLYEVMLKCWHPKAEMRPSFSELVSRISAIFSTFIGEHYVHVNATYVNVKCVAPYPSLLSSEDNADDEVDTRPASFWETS
T1 sequence (Q9UM73 19-1620): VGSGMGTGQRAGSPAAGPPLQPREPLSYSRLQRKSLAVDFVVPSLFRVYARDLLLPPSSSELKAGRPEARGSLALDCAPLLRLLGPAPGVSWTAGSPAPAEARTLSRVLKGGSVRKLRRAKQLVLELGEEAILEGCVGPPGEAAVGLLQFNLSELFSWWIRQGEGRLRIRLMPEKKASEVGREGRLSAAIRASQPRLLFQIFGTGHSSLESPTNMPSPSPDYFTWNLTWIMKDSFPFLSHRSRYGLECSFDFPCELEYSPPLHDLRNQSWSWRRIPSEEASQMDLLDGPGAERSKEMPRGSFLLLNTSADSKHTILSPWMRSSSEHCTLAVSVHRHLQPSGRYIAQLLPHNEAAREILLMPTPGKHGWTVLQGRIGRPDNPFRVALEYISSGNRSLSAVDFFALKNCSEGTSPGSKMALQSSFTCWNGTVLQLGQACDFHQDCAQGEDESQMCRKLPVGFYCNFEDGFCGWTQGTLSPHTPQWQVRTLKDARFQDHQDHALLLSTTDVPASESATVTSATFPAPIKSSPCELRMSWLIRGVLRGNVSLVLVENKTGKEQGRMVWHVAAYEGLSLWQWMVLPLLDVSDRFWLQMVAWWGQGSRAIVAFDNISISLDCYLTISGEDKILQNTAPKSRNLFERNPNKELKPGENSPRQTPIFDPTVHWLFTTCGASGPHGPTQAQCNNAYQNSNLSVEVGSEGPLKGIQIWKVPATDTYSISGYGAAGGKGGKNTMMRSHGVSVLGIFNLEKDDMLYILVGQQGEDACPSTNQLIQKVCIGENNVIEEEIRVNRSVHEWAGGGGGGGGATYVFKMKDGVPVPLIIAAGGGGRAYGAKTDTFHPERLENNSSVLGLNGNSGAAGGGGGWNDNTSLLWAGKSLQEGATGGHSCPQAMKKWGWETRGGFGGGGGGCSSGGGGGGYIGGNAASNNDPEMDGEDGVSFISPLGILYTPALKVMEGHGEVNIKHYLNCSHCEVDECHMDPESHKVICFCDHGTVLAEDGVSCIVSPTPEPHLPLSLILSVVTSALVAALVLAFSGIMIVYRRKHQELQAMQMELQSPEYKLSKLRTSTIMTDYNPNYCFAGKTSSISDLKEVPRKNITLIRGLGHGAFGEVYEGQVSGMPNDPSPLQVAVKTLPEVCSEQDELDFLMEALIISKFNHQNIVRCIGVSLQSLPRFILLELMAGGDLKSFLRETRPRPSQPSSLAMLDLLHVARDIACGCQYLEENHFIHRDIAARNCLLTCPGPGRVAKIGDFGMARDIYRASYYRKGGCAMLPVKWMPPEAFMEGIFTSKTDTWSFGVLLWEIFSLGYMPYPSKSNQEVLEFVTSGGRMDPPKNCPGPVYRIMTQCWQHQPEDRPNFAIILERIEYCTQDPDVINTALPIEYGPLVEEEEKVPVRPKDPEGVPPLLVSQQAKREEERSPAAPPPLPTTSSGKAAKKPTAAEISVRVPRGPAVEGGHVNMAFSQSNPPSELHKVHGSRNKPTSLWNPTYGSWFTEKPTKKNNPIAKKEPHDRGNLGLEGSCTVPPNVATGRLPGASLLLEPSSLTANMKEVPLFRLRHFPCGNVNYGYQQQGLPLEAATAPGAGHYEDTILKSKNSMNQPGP

Regarding `CC1(C)NC(=O)CCc2ccc(Nc3ncc(Cl)c(NC4C5C=CC(C5)C4C(N)=O)n3)cc21` (stereo not drawn) [Example 1832, 3-(5-Chloro-2-(1,1-dimethyl-3-oxo-2,3,4,5-tetrahydro-1H-benzo[c]azepin-8-ylamino)pyrimidin-4-ylamino)bicyclo[2.2.1]hept-5-ene-2-carboxamide], the IC50 in test [1] and in test [2] was less than 0.1 µM throughout.

`CNC(=O)c1ccccc1Nc1nc(Nc2ccc3c(c2)C(C)(C)NC(=O)CC3)ncc1Cl` [Example 1833, 2-(5-Chloro-2-(1,1-dimethyl-3-oxo-2,3,4,5-tetrahydro-1H-benzo[c]azepin-8-ylamino)pyrimidin-4-ylamino)-N-methylbenzamide]: the IC50 in test [1] was less than 0.1 µM; in test [2] it was 0.1 to 1 µM.

With `CNC(=O)c1cccc(Cl)c1Nc1nc(Nc2ccc3c(c2)C(C)(C)NC(=O)CC3)ncc1Cl` [Example 1834, 3-Chloro-2-(5-chloro-2-(1,1-dimethyl-3-oxo-2,3,4,5-tetrahydro-1H-benzo[c]azepin-8-ylamino)pyrimidin-4-ylamino)-N-methylbenzamide], the IC50 in test [1] and in test [2] was less than 0.1 µM in each case.

Regarding `CNC(=O)c1scc(C)c1Nc1nc(Nc2ccc3c(c2)C(C)(C)NC(=O)CC3)ncc1Cl` [Example 1835, 3-(5-Chloro-2-(1,1-dimethyl-3-oxo-2,3,4,5-tetrahydro-1H-benzo[c]azepin-8-ylamino)pyrimidin-4-ylamino)-N,4-dimethylthiophene-2-carboxamide], the IC50 is 0.1 to 1 µM in test [1] and less than 0.1 µM in test [2].

Consider `CNC(=O)c1ccccc1Nc1nc(Nc2ccc3c(c2)-n2ccnc2CCC3)ncc1Cl` [Example 1836, 2-[5-Chloro-2-(5,6-dihydro-4H-3,10b-diaza-benzo[e]azulen-9-ylamino)-pyrimidin-4-ylamino]-N-methyl-benzamide], for which the figures for the IC50 in test [1] and in test [2] were 0.1 to 1 µM and less than 0.1 µM, respectively.

With `CNC(=O)c1cccc(F)c1Nc1nc(Nc2ccc3c(c2)-n2ccnc2CCC3)ncc1Cl` [Example 1837, 2-[5-Chloro-2-(5,6-dihydro-4H-3,10b-diaza-benzo[e]azulen-9-ylamino)-pyrimidin-4-ylamino]-3-fluoro-N-methyl-benzamide], the IC50 in test [1] and in test [2] was less than 0.1 µM in each case.

Turning to `CNC(=O)c1scc(C)c1Nc1nc(Nc2ccc3c(c2)-n2ccnc2CCC3)ncc1Cl` [Example 1838, 3-[5-Chloro-2-(5,6-dihydro-4H-3,10b-diaza-benzo[e]azulen-9-ylamino)-pyrimidin-4-ylamino]-4-methyl-thiophene-2-carboxylic acid methylamide], the IC50 in test [1] is 0.1 to 1 µM; in test [2] it was less than 0.1 µM.

As for `CNC(=O)c1cccc(Cl)c1Nc1nc(Nc2ccc3c(c2)-n2ccnc2CCC3)ncc1Cl` [Example 1839, 2-[5-Chloro-2-(5,6-dihydro-4H-3,10b-diaza-benzo[e]azulen-9-ylamino)-pyrimidin-4-ylamino]-3-chloro-N-methyl-benzamide], the IC50 in test [1] lay within 1 to 10 µM; in test [2], 0.1 to 1 µM.

On to `CNC(=O)c1sccc1Nc1nc(Nc2ccc3c(c2)-n2ccnc2CCC3)ncc1Cl` [Example 1840, 3-[5-Chloro-2-(5,6-dihydro-4H-3,10b-diaza-benzo[e]azulen-9-ylamino)-pyrimidin-4-ylamino]-thiophene-2-carboxylic acid methylamide], for which the IC50 in test [1] and in test [2] was 0.1 to 1 µM throughout.

For `CNC(=O)c1cc(F)ccc1Nc1nc(Nc2ccc3c(c2)-n2ccnc2CCC3)ncc1Cl` [Example 1841, 2-[5-Chloro-2-(5,6-dihydro-4H-3,10b-diaza-benzo[e]azulen-9-ylamino)-pyrimidin-4-ylamino]-5-fluoro-N-methyl-benzamide], the values for the IC50 in test [1] and in test [2] were 1 to 10 µM and 0.1 to 1 µM, respectively.

As for `CC(C)S(=O)(=O)c1cccc(F)c1Nc1nc(Nc2ccc3c(c2)-n2ccnc2CCC3)ncc1Cl` [Example 1842, 5-Chloro-N*2*-(5,6-dihydro-4H-3,10b-diaza-benzo[e]azulen-9-yl)-N*4*-[2-fluoro-6-(propane-2-sulfonyl)-phenyl]-pyrimidine-2,4-diamine], the IC50 in test [1] and in test [2] was less than 0.1 µM throughout.

Take `CNC(=O)c1cccc(F)c1Nc1nc(Nc2ccc3c(c2)-n2c(C)cnc2CCC3)ncc1Cl` [Example 1843, 2-[5-Chloro-2-(1-methyl-5,6-dihydro-4H-3,10b-diaza-benzo[e]azulen-9-ylamino)-pyrimidin-4-ylamino]-3-fluoro-N-methyl-benzamide]: the IC50 in test [1] is 0.1 to 1 µM; in test [2], 1 to 10 µM.

With `CNC(=O)c1cccc(F)c1Nc1nc(Nc2ccc3c(c2)-c2nccn2CCC3)ncc1Cl` [Example 1844, 2-[5-Chloro-2-(5,6-dihydro-4H-1,3a-diaza-benzo[e]azulen-9-ylamino)-pyrimidin-4-ylamino]-3-fluoro-N-methyl-benzamide], the IC50 in test [1] and in test [2] was less than 0.1 µM each time.

With `CNC(=O)c1cccc(Cl)c1Nc1nc(Nc2ccc3c(c2)-c2nccn2CCC3)ncc1Cl` [Example 1845, 2-[5-Chloro-2-(5,6-dihydro-4H-1,3a-diaza-benzo[e]azulen-9-ylamino)-pyrimidin-4-ylamino]-3-chloro-N-methyl-benzamide], the IC50 in test [1] and in test [2] was 0.1 to 1 µM each time.

In the case of `CNC(=O)c1scc(C)c1Nc1nc(Nc2ccc3c(c2)-c2nccn2CCC3)ncc1Cl` [Example 1846, 3-[5-Chloro-2-(5,6-dihydro-4H-1,3a-diaza-benzo[e]azulen-9-ylamino)-pyrimidin-4-ylamino]-4-methyl-thiophene-2-carboxylic acid methylamide], the figures for the IC50 in test [1] and in test [2] were 1 to 10 µM and 0.1 to 1 µM, respectively.

As to `CNC(=O)c1cc(F)ccc1Nc1nc(Nc2ccc3c(c2)-c2nccn2CCC3)ncc1Cl` [Example 1847, 2-[5-Chloro-2-(5,6-dihydro-4H-1,3a-diaza-benzo[e]azulen-9-ylamino)-pyrimidin-4-ylamino]-5-fluoro-N-methyl-benzamide], the IC50 in test [1] lay in the range of 1 to 10 µM; in test [2] it was 0.1 to 1 µM.

With `CNC(=O)c1cccc(F)c1Nc1nc(Nc2ccc3c(c2)NC(=O)CN(C(C)=O)C3)ncc1Cl` [Example 1848, 2-[2-(4-Acetyl-2-oxo-2,3,4,5-tetrahydro-1H-benzo[e][1,4]diazepin-8-ylamino)-5-chloro-pyrimidin-4-ylamino]-3-fluoro-N-methyl-benzamide], the IC50 in test [1] and in test [2] was 0.1 to 1 µM in each case.

As to `CNC(=O)c1sccc1Nc1nc(Nc2ccc3c(c2)NC(=O)CN(C(C)=O)C3)ncc1Cl` [Example 1849, 3-[2-(4-Acetyl-2-oxo-2,3,4,5-tetrahydro-1H-benzo[e][1,4]diazepin-8-ylamino)-5-chloro-pyrimidin-4-ylamino]-thiophene-2-carboxylic acid methyl amide], the IC50 in test [1] was 0.1 to 1 µM; in test [2] it was less than 0.1 µM.

`CNC(=O)c1scc(C)c1Nc1nc(Nc2ccc3c(c2)NC(=O)CN(C(C)=O)C3)ncc1Cl` [Example 1850, 3-[2-(4-Acetyl-2-oxo-2,3,4,5-tetrahydro-1H-benzo[e][1,4]diazepin-8-ylamino)-5-chloro-pyrimidin-4-ylamino]-4-methyl-thiophene-2-carboxylic acid methylamide]: the IC50 in test [1] and in test [2] was 0.1 to 1 µM in each case.

Consider `CCN1C(=O)CN(C(C)=O)Cc2ccc(Nc3ncc(Cl)c(Nc4c(F)cccc4C(=O)NC)n3)cc21` [Example 1851, 2-[2-(4-Acetyl-1-ethyl-2-oxo-2,3,4,5-tetrahydro-1H-benzo[e][1,4]diazepin-8-ylamino)-5-chloro-pyrimidin-4-ylamino]-3-fluoro-N-methyl-benzamide], for which the IC50 in test [1] was 1 to 10 µM; in test [2], less than 0.1 µM.

For `CCN1C(=O)CN(C(C)=O)Cc2ccc(Nc3ncc(Cl)c(Nc4c(C)csc4C(=O)NC)n3)cc21` [Example 1852, 3-[2-(4-Acetyl-1-ethyl-2-oxo-2,3,4,5-tetrahydro-1H-benzo[e][1,4]diazepin-8-ylamino)-5-chloro-pyrimidin-4-ylamino]-4-methyl-thiophene-2-carboxylic acid-methylamide], the IC50 in test [1] and in test [2] was less than 0.1 µM throughout.

`CCN1C(=O)CN(C(C)=O)Cc2ccc(Nc3ncc(Cl)c(Nc4ccsc4C(=O)NC)n3)cc21` [Example 1853, 3-[2-(4-Acetyl-1-ethyl-2-oxo-2,3,4,5-tetrahydro-1H-benzo[e][1,4]diazepin-8-ylamino)-5-chloro-pyrimidin-4-ylamino]-thiophene-2-carboxylic acid methylamide]: the values for the IC50 in test [1] and in test [2] were 1 to 10 µM and less than 0.1 µM, respectively.

Regarding `CCN1C(=O)CN(C(C)=O)Cc2ccc(Nc3ncc(Cl)c(Nc4c(Cl)cccc4C(=O)NC)n3)cc21` [Example 1854, 2-[2-(4-Acetyl-1-ethyl-2-oxo-2,3,4,5-tetrahydro-1H-benzo[e][1,4]diazepin-8-ylamino)-5-chloro-pyrimidin-4-ylamino]-3-chloro-N-methyl-benzamide], the IC50 is 0.1 to 1 µM in test [1] and less than 0.1 µM in test [2].

As to `CCN1C(=O)CN(C(C)=O)Cc2ccc(Nc3ncc(Cl)c(Nc4ccccc4C(=O)NC)n3)cc21` [Example 1855, 2-[2-(4-Acetyl-1-ethyl-2-oxo-2,3,4,5-tetrahydro-1H-benzo[e][1,4]diazepin-8-ylamino)-5-chloro-pyrimidin-4-ylamino]-N-methyl-benzamide], the results for the IC50 in test [1] and in test [2] were 1 to 10 µM and less than 0.1 µM, respectively.
